Experiments:
[1] = biological target: T1, β2-AR-mCherry, endogenous Gs (Homo sapiens, UniProt P07550); experiment: activation of endogenous Gs (BODIPY-FL-GTPγS), native membranes expressing β2-AR-mCherry; assay type: biochemical
T1 construct: expressed in transfected cells; host or cells: native (not urea-stripped) membranes of HEK293T cells transiently transfected with β2-AR-mCherry
Description: Membranes were prepared following a published protocol[56] from HEK293T cells transiently transfected with the appropriate DNA (β2-AR-mCherry, β2-mCerulean, […]-mCherry, β2-AR-ICL3 or β2-AR-Sp). Cells were collected in culture medium and washed twice with PBS by centrifugation (300 × g, 3 min, ambient temperature). […] Cells in solution A were lysed gently (30 strokes) in a chilled Dounce homogenizer in the presence of 1.5 μg/mL aprotinin, 1.5 μg/mL leupeptin, 5 μg/mL phenylmethylsulfonyl fluoride (PMSF) and 1 mM dithiothreitol (DTT). Nuclei and intact cells were eliminated by centrifugation at 1000 × g, 5 min, 4 °C. All subsequent centrifugation steps were performed in a TLA100.4 rotor at 135,000 × g, 30 min, 4 °C. […] HEK293T cells in 15 cm dishes were transiently transfected with β2-AR-mCherry or […]-mCherry plasmid as described in the section on “Cells, Cell culture and Transfections,” earlier. Membranes were isolated and treated with urea as detailed (Membrane preparations). Urea treatment denatures and inactivates the endogenous G proteins, allowing the reconstitution of desired combinations of Gα, and βγ subunits and specific C terminus peptides. Reconstitution reactions were assembled on ice. […] The agonist-stimulated change in fluorescence counts was calculated by subtracting the early stimulation spectra from the post-stimulation spectra. Samples treated with BODIPY buffer (no agonist) were processed similarly, to determine the increase in BODIPY fluorescence without agonist stimulation, which represented nonspecific and basal incorporation of the BODIPY in the reaction time. Specific, agonist-induced change in BODIPY fluorescence was calculated by subtracting the increase in buffer-treated samples from the agonist-mediated increase. This change in fluorescence (increase) provided a measure of BODIPY-FL-GTPγS incorporation into the Gα-subunit. Each reaction provided three agonist and three mock readings. […] BODIPY incorporation was monitored as above. […] The experiment was repeated with mock buffer and agonist-specific G-protein activation was calculated.

[2] = extent of photocleavage of PC-Qp by MALDI-MS; assay type: physicochemical; design: Conc. App: unit: μM; details: for concentration of full-length PC-Qp: 50 μM input, native membranes, MALDI-MS, mean of three experiments; for Conc. App: PC-Qp full length; for PC-Qp full length (fraction, MALDI-MS): plus UV (350 nm, 2 min)
Description: Native membranes were prepared from cells expressing β2-mCer and were stored in sucrose-supplemented buffer A as described above (Membrane preparations). […]. Both samples were centrifuged 100,000 × g, 5 min, 4 °C to sediment the membrane. Supernatants were stored on ice for analysis by MS. Control samples containing 50 μM peptide in the buffer were also prepared.
Prior to matrix-assisted laser desorption and ionization time-of-flight MS (MALDI-TOF MS) analysis, the samples were desalted using C18 ZipTips (Millipore Corporation, Billerica, MA). The manufacturer’s standard protocol for peptide clean-up was followed. After elution from the ZipTip, 1 μL of each sample was spotted on a MALDI-TOF 384 spot stainless-steel target (Bruker Daltonics, Billerica, MA) and mixed with 1 μl of α-cyano-4-hydroxy-cinnamic acid (α-CHCA) matrix (15 mg/ml α-CHCA in 50% acetonitrile). Each spot was allowed to dry at room temperature. The target was placed in a Bruker Autoflex Speed MALDI-TOF mass spectrometer (Bruker Daltonics, Billerica, MA) equipped with a Nd-YAG 355 nm pulsed laser. The data were collected in reflectron mode, positive polarity, with an accelerating potential of 19 kV. Each spectrum was the accumulation of 4000 laser shots with complete spot raster of the laser during data collection. External calibration was performed using 0.5 μl α-CHCA and 0.5 μl of peptide standard (part# 206195, Bruker Daltonics, Billerica, MA) with Angiotensin II (monoisotopic mass [MH^+ ] 1046.5418), Angiotensin I (monoisotopic mass [MH^+ ] 1296.6848), SubstanceP (monoisotopic mass [MH^+] 1347.7354), Bombesin (monoisotopic mass [MH^+] 1619.8223), ACTH clip 1–17 (monoisotopic mass [MH^+] 2093.0862), ACTH clip 18–39 (monoisotopic mass [MH^+] 2465.1983), and Somatostatin 28 (monoisotopic mass [MH^+] 3147.4710). The Bruker data files were converted to mzXML files using MSConvertGUI tool in ProteoWizard open-source software. The mzXML files were viewed and analyzed with mMass v5.5 open-source software.

[3] = +UV (second block), replicate #1
[4] = +UV (second block), replicate #2
[5] = +UV (second block), replicate #3
[6] = −UV (first block), replicate #1
[7] = −UV (first block), replicate #2
[8] = −UV (first block), replicate #3

- primed G-protein activation response after UV before mixing ([1]; PC-Qp exposed to UV before mixing with other reactants): lost
- persistence of enhanced G-protein activation after photocleavage ([1]; PC-Qp, UV after addition to membranes): 120 s
- increase in G-protein activation in response to fenoterol ([1]; fenoterol 10 μM, 3 min, Qp 30 μM or PC-Qp 50 μM, no UV): ~ 7 fold
- concentration of full-length PC-Qp ([2]; +UV (350 nm, 2 min)): 4.582 µM
- % cleavage [2, 3]: 90.1408%
- % uncleaved [2, 3]: 9.859%
- % cleavage [2, 4]: 90.4762%
- % uncleaved [2, 4]: 9.524%
- % cleavage [2, 5]: 91.8919%
- % uncleaved [2, 5]: 8.108%
- Conc. App [2, 3]: 4.93
- Conc. App [2, 4]: 4.7619
- Conc. App [2, 5]: 4.054
- Conc. App [2, 6]: 33.3333
- Conc. App [2, 7]: 37.7551
- Conc. App [2, 8]: 30.7692
- PC-Qp full length (fraction, MALDI-MS) ([2]; replicate 1): 0.098
- PC-Qp full length (fraction, MALDI-MS) ([2]; replicate 2): 0.095
- PC-Qp full length (fraction, MALDI-MS) ([2]; replicate 3): 0.081
- % cleavage [2, 6]: 33.3333%
- % uncleaved [2, 6]: 66.6667%
- % cleavage [2, 7]: 24.4898%
- % uncleaved [2, 7]: 75.5102%
- % cleavage [2, 8]: 38.4615%
- % uncleaved [2, 8]: 61.5385%
- concentration of full-length PC-Qp ([2]; −UV): 33.9526 µM
Substance: DTENIRFVFAAVKDTILQLNLKE(Anp)NLV [PC-Qp, photocleavable Qp, Y356 replaced by Anp]

— publication PMC6811539, “Minute-scale persistence of a GPCR conformation state triggered by non-cognate G protein interactions primes signaling” (Nature Communications, 2019)
